Measurements as given in article PMC10726440, “N-Biphenyl Pyrrolinones and Dibenzofurans as RNA-Binding Protein LIN28 Inhibitors Disrupting the LIN28–Let-7 Interaction” (ACS Medicinal Chemistry Letters, 2023).
“And” between values parts separate entries of the source, which are not always exact repeats. Equal entries are not always repeated.

What was measured:
[1] = target: T1, LIN28A(16–187)–let-7 interaction (Homo sapiens, UniProt Q9H9Z2); assay: Electrophoretic mobility shift assay (EMSA), disruption of LIN28–let-7 complex; assay type: binding; settings: for IC50: concentration-dependent EMSA, some values estimated, read-out: IC50 in dose–response EMSA; for inhibition at 75 µM: single concentration of 75 μM, read-out: inhibition of the LIN28–let-7 interaction measured in EMSA
T1 construct: LIN28A(16–187) or LIN28B(24–111); pET19a or pMAL vector) (cleaved yes); made in house; host or cells: Escherichia coli BL21(DE3)
T1 sequence (Q9H9Z2 16-187): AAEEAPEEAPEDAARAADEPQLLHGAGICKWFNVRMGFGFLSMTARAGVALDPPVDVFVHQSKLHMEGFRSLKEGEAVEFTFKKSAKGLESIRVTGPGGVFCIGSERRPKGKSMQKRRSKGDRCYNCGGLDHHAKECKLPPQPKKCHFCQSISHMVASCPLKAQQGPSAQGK
Method: (§1) Inhibition of the LIN28–let-7 complex was evaluated by electrophoretic mobility shift assays. Mixtures containing compound at indicated concentrations, LIN28A(16–187) or LIN28B(24–111), and recombinant ribonuclease inhibitor (TaKaRa Bio) were incubated at room temperature for 2 h. The reaction buffer contained 50 mM TRIS, pH 7.5, 100 mM NaCl, 10 mM β-mercaptoethanol, 50 μM ZnCl2, 2% DMSO, 0.01% Tween-20 and 12% glycerol. Cy-3-fluorophore labeled RNA, (pre-E let-7f-1-Cy3, Mus musculus, […]-Cy3, purchased from IDT) was added to the reaction and incubated for further 15 min. The final concentrations were as follows: 10 nM LIN28A or 200 nM LIN28B, 5 nM RNA. Of each mixture, 10 μL was analyzed on a nondenaturing PAGE (5.3% acrylamide TAE PAGE for full-length LIN28 and 10% acrylamide TAE PAGE for analysis of the CSD) prerun for 1 h without sample and run for 1 h at 220 V at 4 °C in 0.25× TAE buffer. Gels were imaged using a ChemiDoc MP instrument (Bio-Rad Laboratories). Band intensities were analyzed using ImageJ and inhibition was quantified by calculation of the ratio of free RNA fluorescence to the fluorescence of the protein–RNA complex, and normalization to free RNA and LIN28–let-7 complex controls. The intensity ratio was analyzed by nonlinear regression fit in GraphPad Prism to determine the IC50 values.

[2] = target: T2, LIN28A (16-126) CSD protein (Homo sapiens, UniProt Q9H9Z2); assay: Nano differential scanning fluorimetry (nanoDSF) thermal shift; assay type: binding; settings: compound at 75 μM
T2 construct: incubated with LIN28A (16-126) CSD protein; pET19a or pMAL vector) (cleaved yes); made in house; host or cells: Escherichia coli BL21(DE3)
T2 sequence (Q9H9Z2 16-126): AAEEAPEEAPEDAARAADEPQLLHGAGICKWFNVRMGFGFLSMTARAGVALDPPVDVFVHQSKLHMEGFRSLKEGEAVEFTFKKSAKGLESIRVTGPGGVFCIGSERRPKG
Method: (§2) Nano differential scanning fluorimetry (nanoDSF)
Compounds (final concentration 75 µM) were incubated with LIN28A (16-126) CSD protein
for 45 minutes at room temperature in a buffer containing 30 mM NaH2PO4, 50 mM NaCl and
1 mM MgCl2 at pH 8.0. Thermal protein stability was determined using NanoTemper
Prometheus NT.48 with a temperature ramp from 20 °C to 90 °C increasing the temperature by
1 °C per minute. Melting temperatures were determined using the software of the device. […]
(§3) Master Mix II, with UNG (A pplied Biosystems) and a CFX Connect Real -Time PCR System

LIN28B–let-7 interaction = target: T3, LIN28B–let-7 interaction (Homo sapiens, UniProt Q6ZN17); assay: EMSA with LIN28B; assay type: binding; settings: Figure S3
T3 construct: residues 24–111 of the LIN28B cold shock domain; pET19a or pMAL vector) (cleaved yes); made in house; host or cells: Escherichia coli BL21(DE3)
T3 sequence (Q6ZN17 24-111): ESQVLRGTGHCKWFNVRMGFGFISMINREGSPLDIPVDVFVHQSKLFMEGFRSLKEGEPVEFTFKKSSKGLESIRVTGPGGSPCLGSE
Method: as §1

LIN28A CSD = target: T4, LIN28A CSD (Homo sapiens, UniProt Q9H9Z2); assay: Biolayer interferometry (BLI); assay type: binding
T4 construct: residues 16–126 of the LIN28A cold shock domain; pET19a or pMAL vector) (cleaved yes); made in house; host or cells: Escherichia coli BL21(DE3)
T4 sequence (Q9H9Z2 16-126): T2 sequence (Q9H9Z2 16-126)
Method: (§4) Biolayer Interferometry (BLI)
(§5) Recombinant LIN28A CSD was biotinylated with EZ-Link Sulfo NHS-LC-LC-Biotin (Thermo Fisher Scientific) following the manufacturer's guidelines with a labeling ratio of one biotin per protein. Free biotin reagent was removed during dialysis against buffer (20 mM HEPES pH 7.5, 150 mM NaCl, 1 mM MgCl2). After loading optimization, the protein was immobilized on SA biosensors (Sartorius). The association and dissociation of compounds were recorded in a buffer containing 20 mM HEPES pH 7.5, 150 mM NaCl, 1 mM MgCl2, 0.05 % Tween 20, 1 % DMSO and 0.3 mg/mL BSA. Data was measured and analyzed using an Octet Red384 instrument (Sartorius). Double referencing against samples without compound and sensors loaded with 10 µg/mL biocytin instead of protein was performed. […]
as §3

[3] = tested on: mature let-7d and let-7i levels in JAR cells; assay: qPCR of mature let-7 miRNA levels in JAR cells; assay type: cell-based; settings: 24 h
Method: as §2
Compounds (final concentration 75 µM) were incubated with LIN28A (16-126) CSD protein for 45 minutes at room temperature in a buffer containing 30 mM NaH2PO4, 50 mM NaCl and 1 mM MgCl2 at pH 8.0. Thermal protein stability was determined using NanoTemper Prometheus NT.48 with a temperature ramp from 20 °C to 90 °C increasing the temperature by 1 °C per minute. Melting temperatures were determined using the software of the device.
as §4
as §5, with “After loading optimization, the protein was immobilized on SA biosensors (Sartorius).” left out, “(Sartorius).” for “(Sartorius). Double referencing against samples without compound and sensors loaded with 10 µg/mL biocytin instead of protein was performed.”
For computational docking analysis of pyrrolinones 11S/R to the RNA binding site of LIN28A (PDB code: 5UDZ)1 Schrödinger® Maestro 12.3 was used. […] The glide dock module was used and the results were evaluated according to interactions between small molecules and LIN28A, small molecule orientations, docking scores and solvent exposure patterns. […]

IC50 [1] | inhibition at 75 µM [1] [%] | increase in thermal stability (melting temperature shift) of the LIN28 CSD [2] | inhibition of the LIN28B–let-7 interaction in EMSA (in words) (LIN28B–let-7 interaction) | direct binding to the LIN28 CSD in biolayer interferometry (in words) (LIN28A CSD) | Structure (SMILES) | effect on biogenesis of mature let-7i and let-7d miRNAs (in words) [3]
> 75 µM and ~90 µM | 69.9 | less than 0.5 °C | – | – | Cn1nnc2cc(C3C(C(=O)c4ccccc4)=C(O)C(=O)N3c3ccc(O)c(C(=O)O)c3)ccc21 (stereo not drawn) [Compound 8] | –
24 µM | – | ~1.9 °C | – | – | O=C(C1=C(O)C(=O)N(c2cccc(-c3ccccc3)c2)[C@@H]1c1ccc([N+](=O)[O-])cc1)c1ccccc1 [Compound 11R] | –
27 µM | 95 | – | concentration-dependent manner | concentration-dependent binding | O=C(C1=C(O)C(=O)N(c2cccc(-c3ccccc3)c2)C1c1ccc([N+](=O)[O-])cc1)c1ccccc1 (stereo not drawn) [Compound 11] | concentration-dependent manner
37 µM | – | ~1.9 °C | – | – | O=C(C1=C(O)C(=O)N(c2cccc(-c3ccccc3)c2)[C@H]1c1ccc([N+](=O)[O-])cc1)c1ccccc1 [Compound 11S] | –
